The values that follow come from patent US8710085B2, “Pyrrolidine-1,2-dicarboxamide derivatives” (Novartis AG, priority 2008, dated 2014).

Series [1] addresses T1, PI3Kα (Homo sapiens, UniProt P42336).
T1 construct: p110α(21-1068)-His; made in house; host or cells: baculovirus, Tn5 insect cells
In words: PI3K KinaseGlo assay, PI3Kα. The settings on record: KinaseGlo; 10 nM enzyme, 1 μM ATP, 30 mins, room temperature; read-out: PI3Ka/IC50. In kind it is biochemical. Background: Kinase-Glo measures the ATP left after a reaction by luminescence.

In series [2] the target is T2, PI3Kβ (Homo sapiens, UniProt P42338).
T2 construct: p110β(2-1070)-His; made in house; host or cells: baculovirus, Tn5 insect cells
In words: PI3K KinaseGlo assay, PI3Kβ. In kind it is biochemical. The settings on record: KinaseGlo; 25 nM enzyme, 1 μM ATP, 30 mins, room temperature; read-out: PI3Kb/IC50. The method, then: PI3K KinaseGlo assay: […] of compound dilutions were dispensed onto black 384-well low volume Non Binding Styrene (NBS) plates (Costar Cat. No. NBS#3676). L-a-phosphatidylinositol (PI), provided as 10 mg/ml solution in methanol, was transferred into a glass tube and dried under nitrogen beam. It was then resuspended in 3% OctylGlucoside (OG) by vortexing and stored at 4° C. The KinaseGlo Luminescent Kinase Assay (Promega, Madison/WI, USA) is a homogeneous HTS method of measuring kinase activity by quantifying the amount of ATP remaining in solution following a kinase reaction.
5 μL of a mix of PI/OG with the PI3K subtype were added (Table 1). Kinase reactions were started by addition of 5 μl of ATP-mix containing in a final volume 10 μL 10 mM TRIS-HCl pH 7.5, 3 mM MgCl2, 50 mM NaCl, 0.05% CHAPS, 1 mM DTT and 1 μM ATP, and occurred at room temperature. […] The standard was used as a reference compound and included in all assay plates in the form of 16 dilution points in duplicate.
The PI3Kα, PI3Kβ and PI3Kδ constructs are fusion of p85α iSH2 domain and the respective p110 isoforms. The p85α fragment and p110 isoform genes were generated by PCR from first strand cDNA generated by RT-PCR from commercial RNA from placenta, testis and brain as described below. The PI3Kγ construct was obtained from Roger Williams lab, MRC Laboratory of Molecular Biology, Cambridge, UK (November, 2003) and is described (Pacold, Michael E.; Suire, Sabine; Perisic, Olga; Lara-Gonzalez, Samuel; Davis, Colin T.; Walker, Edward H.; Hawkins, Phillip T.; Stephens, Len; Eccleston, John F.; Williams, Roger L. Crystal structure and functional analysis of Ras binding to its effector phosphoinositide 3-kinase gamma. Cell (2000), 103(6), 931-943).
BV949: PCR products for the inter SH2 domain (iSH2) of the p85 PI3Kα, PI13Kβ and PI3Kδ subunit and for the full-length p110β subunit were generated and fused by overlapping PCR. […] The p11013 fragment was obtained by PCR using as template a p110β clone (from unknown source that was sequence verified) using primers gwG130-p04 (5′-[…]-[…]-3′) (SEQ ID NO: 9) which contains linker sequences and the 5′ end of p110β and gwG130-p06 (5′-[…]-[…]-3′) (SEQ ID NO: 10) which contains sequences of the 3′ end of p110-β fused to a Histidine tag. […] This final product was recombined in a Gateway (Invitrogen) […] into the donor vector pDONR201 (Invitrogen) to generate the ORF253 entry clone. This clone was verified by sequencing and used in a Gateway LR reaction (Invitrogen) to transfer the insert into the Gateway adapted pBlueBac4.5 (Invitrogen) vector for generation of the baculovirus expression vector LR280.
(§1) PI3Kα, PI3Kβ and PI3Kγ were purified in two chromatographic steps: immobilized metal affinity chromatography (IMAC) on a Ni sepharose resin (GE Healthcare) and gel filtration utilizing a Superdex 200 26/60 column (GE Healthcare). All buffers were chilled to 4° C. and lysis was performed chilled on ice. Column fractionation was performed at room temperature. All buffers used to purify PI3Kβ contained 0.05% Triton X100 in addition to what is described below.
The lysate was centrifuged at 45,000 g for 30 minutes, and the supernatant was loaded onto a pre-equilibrated IMAC column (3 mL resin/100 mL lysate). […] Protein was eluted with 20 mM Tris-Cl, pH 7.5, 0.5 M NaCl, 5% glycerol, 250 mM imidazole, 1 mM NaF, 0.1 μg/mL OAA, 5 mM BME, 1× Complete protease inhibitor cocktail—EDTA-free. Pertinent fractions were analyzed by SDS-PAGE and pooled accordingly. The protein was further purified by gel filtration on a Superdex 200 26/60 column equilibrated in 20 mM Tris-Cl, pH 7.5, 0.5 M NaCl, 5% glycerol, 1 mM NaF, 5 mM DTT, 1× Complete protease inhibitor cocktail—EDTA-free. Pertinent fractions were analyzed by SDS-PAGE and pooled accordingly.

Series [3] addresses T3, PI3Kδ (Homo sapiens, UniProt O00329).
T3 construct: p85iSH2(461-568)-GGGGGG-p110δ(2-1044)-His; made in house; host or cells: baculovirus, Tn5 insect cells
In words: PI3K KinaseGlo assay, PI3Kδ. In kind it is biochemical. The note with it: 10 nM enzyme, 1 μM ATP, 30 mins, room temperature, read-out: PI3Kd/IC50.

Series [4] concerns the target T4, PI3Kγ (Homo sapiens, UniProt P48736, Q459R).
T4 construct: p110γ(Δ143-[Met144-1102])-His; made in house; host or cells: Tn5 insect cells; construct from Roger Williams lab, MRC LMB
In words: PI3K KinaseGlo assay, PI3Kγ. In kind it is biochemical. The settings on record: 150 nM enzyme, 1 μM ATP, 90 mins, room temperature, read-out: PI3Kg/IC50. The method, then: L-a-phosphatidylinositol (PI), provided as 10 mg/ml solution in methanol, was transferred into a glass tube and dried under nitrogen beam. It was then resuspended in 3% OctylGlucoside (OG) by vortexing and stored at 4° C. The KinaseGlo Luminescent Kinase Assay (Promega, Madison/WI, USA) is a homogeneous HTS method of measuring kinase activity by quantifying the amount of ATP remaining in solution following a kinase reaction.
5 μL of a mix of PI/OG with the PI3K subtype were added (Table 1). Kinase reactions were started by addition of 5 μl of ATP-mix containing in a final volume 10 μL 10 mM TRIS-HCl pH 7.5, 3 mM MgCl2, 50 mM NaCl, 0.05% CHAPS, 1 mM DTT and 1 μM ATP, and occurred at room temperature. […] The standard was used as a reference compound and included in all assay plates in the form of 16 dilution points in duplicate. […]
as §1
The lysate was centrifuged at 45,000 g for 30 minutes, and the supernatant was loaded onto a pre-equilibrated IMAC column (3 mL resin/100 mL lysate). […] Protein was eluted with 20 mM Tris-Cl, pH 7.5, 0.5 M NaCl, 5% glycerol, 250 mM imidazole, 1 mM NaF, 0.1 μg/mL OAA, 5 mM BME, 1× Complete protease inhibitor cocktail—EDTA-free. Pertinent fractions were analyzed by SDS-PAGE and pooled accordingly. The protein was further purified by gel filtration on a Superdex 200 26/60 column equilibrated in 20 mM Tris-Cl, pH 7.5, 0.5 M NaCl, 5% glycerol, 1 mM NaF, 5 mM DTT, 1× Complete protease inhibitor cocktail—EDTA-free. Pertinent fractions were analyzed by SDS-PAGE and pooled accordingly. An equal volume of Dialysis Buffer (20 mM Tris-Cl, pH 7.5, 500 mM NaCl, 50% glycerol, 5 mM NaF, 5 mM DTT) was added to the pool and than dialyzed against Dialysis Buffer two changes (one change overnight). Protein was stored at −20° C.

Usually melting point stands for the temperature of the solid-liquid transition.

T1 sequence (P42336 with tags, fused parts or gaps): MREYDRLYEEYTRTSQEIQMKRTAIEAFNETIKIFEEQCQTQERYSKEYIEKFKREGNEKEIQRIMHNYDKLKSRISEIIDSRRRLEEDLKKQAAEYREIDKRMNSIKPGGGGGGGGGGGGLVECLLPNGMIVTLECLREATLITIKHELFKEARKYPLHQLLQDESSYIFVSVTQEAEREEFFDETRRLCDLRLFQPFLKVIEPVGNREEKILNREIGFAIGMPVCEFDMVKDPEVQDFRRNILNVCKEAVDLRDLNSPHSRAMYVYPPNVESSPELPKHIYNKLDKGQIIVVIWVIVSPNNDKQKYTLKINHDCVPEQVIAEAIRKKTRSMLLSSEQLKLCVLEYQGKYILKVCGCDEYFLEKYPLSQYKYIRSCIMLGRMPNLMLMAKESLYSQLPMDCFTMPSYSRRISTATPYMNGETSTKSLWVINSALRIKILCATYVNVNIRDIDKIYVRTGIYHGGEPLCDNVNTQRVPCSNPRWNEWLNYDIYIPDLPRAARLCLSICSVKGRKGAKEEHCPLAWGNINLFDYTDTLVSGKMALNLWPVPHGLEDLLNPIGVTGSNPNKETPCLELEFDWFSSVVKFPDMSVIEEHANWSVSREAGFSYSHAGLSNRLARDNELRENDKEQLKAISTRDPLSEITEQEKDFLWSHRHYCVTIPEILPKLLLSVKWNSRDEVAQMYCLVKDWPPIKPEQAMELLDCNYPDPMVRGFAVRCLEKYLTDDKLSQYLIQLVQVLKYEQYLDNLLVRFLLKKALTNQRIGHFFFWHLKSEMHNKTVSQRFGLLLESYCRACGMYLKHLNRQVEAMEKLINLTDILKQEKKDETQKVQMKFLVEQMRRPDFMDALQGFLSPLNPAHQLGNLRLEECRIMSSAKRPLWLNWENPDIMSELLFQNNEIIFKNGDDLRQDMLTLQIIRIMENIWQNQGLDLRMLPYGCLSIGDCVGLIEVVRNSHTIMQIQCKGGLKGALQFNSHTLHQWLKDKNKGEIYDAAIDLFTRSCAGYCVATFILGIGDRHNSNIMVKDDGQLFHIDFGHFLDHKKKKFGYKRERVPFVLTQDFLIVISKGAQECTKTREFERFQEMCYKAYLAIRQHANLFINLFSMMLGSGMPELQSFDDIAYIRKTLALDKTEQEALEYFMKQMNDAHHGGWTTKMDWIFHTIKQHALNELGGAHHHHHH
T2 sequence (P42338 with tags, fused parts or gaps): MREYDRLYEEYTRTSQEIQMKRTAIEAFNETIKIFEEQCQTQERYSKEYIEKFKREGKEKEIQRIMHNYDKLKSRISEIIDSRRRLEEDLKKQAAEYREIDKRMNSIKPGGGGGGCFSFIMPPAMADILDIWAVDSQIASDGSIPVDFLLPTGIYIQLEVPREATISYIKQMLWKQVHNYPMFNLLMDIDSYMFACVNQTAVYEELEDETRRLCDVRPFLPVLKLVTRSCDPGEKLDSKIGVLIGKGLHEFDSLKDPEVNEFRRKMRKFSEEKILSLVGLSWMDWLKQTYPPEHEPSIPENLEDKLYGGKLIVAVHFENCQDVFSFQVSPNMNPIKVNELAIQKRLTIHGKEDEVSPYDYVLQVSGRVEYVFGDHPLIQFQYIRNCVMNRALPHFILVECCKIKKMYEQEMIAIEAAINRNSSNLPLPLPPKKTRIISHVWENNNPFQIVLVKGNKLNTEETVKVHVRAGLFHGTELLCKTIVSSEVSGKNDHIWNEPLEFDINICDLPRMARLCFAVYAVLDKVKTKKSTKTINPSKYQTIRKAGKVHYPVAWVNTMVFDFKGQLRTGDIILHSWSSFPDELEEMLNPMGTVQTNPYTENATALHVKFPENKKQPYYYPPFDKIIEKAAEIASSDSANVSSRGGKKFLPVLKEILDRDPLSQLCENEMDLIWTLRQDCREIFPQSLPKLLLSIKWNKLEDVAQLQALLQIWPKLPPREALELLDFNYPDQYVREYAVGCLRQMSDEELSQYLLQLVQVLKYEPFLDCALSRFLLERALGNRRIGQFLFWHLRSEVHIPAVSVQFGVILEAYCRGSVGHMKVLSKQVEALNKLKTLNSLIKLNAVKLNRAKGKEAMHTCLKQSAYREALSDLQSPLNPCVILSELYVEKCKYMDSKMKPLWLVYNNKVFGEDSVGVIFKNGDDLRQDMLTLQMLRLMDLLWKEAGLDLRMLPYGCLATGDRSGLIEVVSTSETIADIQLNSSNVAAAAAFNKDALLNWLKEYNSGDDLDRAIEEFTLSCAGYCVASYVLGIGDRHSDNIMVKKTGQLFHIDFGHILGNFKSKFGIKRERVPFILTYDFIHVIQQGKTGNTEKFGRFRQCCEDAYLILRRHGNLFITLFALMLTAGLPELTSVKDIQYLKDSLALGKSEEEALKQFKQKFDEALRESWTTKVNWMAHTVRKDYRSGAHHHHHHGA
T4 sequence (P48736 with tags, fused parts or gaps Q459R): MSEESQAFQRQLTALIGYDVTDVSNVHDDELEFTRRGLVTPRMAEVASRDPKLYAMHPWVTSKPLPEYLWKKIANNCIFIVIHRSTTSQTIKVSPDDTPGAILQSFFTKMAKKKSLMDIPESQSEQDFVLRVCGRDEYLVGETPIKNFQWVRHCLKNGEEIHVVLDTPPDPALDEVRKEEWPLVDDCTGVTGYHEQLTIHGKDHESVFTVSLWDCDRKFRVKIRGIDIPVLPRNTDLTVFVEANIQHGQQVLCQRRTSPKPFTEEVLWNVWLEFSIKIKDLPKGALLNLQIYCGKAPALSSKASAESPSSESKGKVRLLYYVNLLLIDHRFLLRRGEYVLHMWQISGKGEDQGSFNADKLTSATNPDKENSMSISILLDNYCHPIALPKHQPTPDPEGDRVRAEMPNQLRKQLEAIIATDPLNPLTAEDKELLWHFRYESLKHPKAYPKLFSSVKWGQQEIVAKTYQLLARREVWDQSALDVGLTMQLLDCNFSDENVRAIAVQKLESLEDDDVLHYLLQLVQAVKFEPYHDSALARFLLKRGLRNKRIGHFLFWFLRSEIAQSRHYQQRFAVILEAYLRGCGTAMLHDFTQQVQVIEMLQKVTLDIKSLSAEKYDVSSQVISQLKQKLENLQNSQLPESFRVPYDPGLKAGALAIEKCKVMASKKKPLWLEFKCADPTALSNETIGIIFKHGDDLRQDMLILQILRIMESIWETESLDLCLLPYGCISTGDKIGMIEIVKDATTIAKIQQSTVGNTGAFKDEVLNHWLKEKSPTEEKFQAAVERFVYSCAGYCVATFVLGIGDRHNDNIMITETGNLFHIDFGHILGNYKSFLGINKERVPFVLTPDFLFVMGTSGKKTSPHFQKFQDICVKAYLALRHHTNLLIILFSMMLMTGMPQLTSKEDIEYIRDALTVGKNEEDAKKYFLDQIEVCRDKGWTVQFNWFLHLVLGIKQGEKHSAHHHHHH
T3 sequence (O00329 with tags, fused parts or gaps): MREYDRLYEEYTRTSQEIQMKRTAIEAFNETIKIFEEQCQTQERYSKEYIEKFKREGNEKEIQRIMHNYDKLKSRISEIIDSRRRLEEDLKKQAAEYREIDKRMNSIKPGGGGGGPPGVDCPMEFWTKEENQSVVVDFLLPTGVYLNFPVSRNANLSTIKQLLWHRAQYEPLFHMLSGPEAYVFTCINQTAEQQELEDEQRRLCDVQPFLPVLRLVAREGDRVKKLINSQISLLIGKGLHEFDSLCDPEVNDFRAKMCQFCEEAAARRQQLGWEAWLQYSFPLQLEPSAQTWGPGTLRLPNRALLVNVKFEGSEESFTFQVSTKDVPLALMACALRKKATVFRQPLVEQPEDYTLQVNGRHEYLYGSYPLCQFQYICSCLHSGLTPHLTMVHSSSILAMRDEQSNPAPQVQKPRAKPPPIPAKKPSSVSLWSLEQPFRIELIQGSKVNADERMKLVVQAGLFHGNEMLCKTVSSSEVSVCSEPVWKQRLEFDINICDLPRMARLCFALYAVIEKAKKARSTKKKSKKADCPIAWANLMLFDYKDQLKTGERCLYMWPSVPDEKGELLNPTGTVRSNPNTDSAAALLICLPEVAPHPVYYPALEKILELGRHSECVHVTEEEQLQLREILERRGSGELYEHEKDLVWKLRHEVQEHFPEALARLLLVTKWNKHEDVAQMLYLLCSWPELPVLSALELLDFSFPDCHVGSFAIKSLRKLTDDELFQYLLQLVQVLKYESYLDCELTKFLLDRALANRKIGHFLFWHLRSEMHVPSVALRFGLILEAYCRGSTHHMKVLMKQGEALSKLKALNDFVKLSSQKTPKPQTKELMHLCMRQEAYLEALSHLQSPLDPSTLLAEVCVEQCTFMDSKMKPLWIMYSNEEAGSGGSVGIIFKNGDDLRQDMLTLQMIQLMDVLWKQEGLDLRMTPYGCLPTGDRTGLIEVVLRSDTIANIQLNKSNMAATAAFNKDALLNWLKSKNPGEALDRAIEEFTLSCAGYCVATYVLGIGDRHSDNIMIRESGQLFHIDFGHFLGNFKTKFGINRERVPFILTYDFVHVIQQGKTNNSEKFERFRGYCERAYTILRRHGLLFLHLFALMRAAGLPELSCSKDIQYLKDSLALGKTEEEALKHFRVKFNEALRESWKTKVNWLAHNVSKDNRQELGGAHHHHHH

For `Cc1nc(NC(=O)N2CCC[C@H]2C(N)=O)sc1-c1ccnc(CC2CC2)n1` [Example 70, (S)-Pyrrolidine-1,2-dicarboxylic acid 2-amide 1-{[5-(2-cyclopropylmethyl-pyrimidin-4-yl)-4-methyl-thiazol-2-yl]-amide}], the melting point fell in the range of 220 to 222 °C.
With `Cc1nc(NC(=O)N2CCC[C@H]2C(N)=O)sc1-c1ccnc(C(C)(C)C(F)(F)F)n1` [Example 64, (S)-Pyrrolidine-1,2-dicarboxylic acid 2-amide 1-({4-methyl-5-[2-(2,2,2-trifluoro-1,1-dimethyl-ethyl)-pyrimidin-4-yl]-thiazol-2-yl}-amide)], the IC50 in series [1] was 10 nM; in series [2], 692 nM; in series [3] it was 32 nM; in series [4], 451 nM.
As to `Cc1nc(NC(=O)N2CCC[C@H]2C(N)=O)sc1-c1ccnc(-c2ccccc2F)c1` [Example 3, (S)-Pyrrolidine-1,2-dicarboxylic acid 2-amide 1-({5-[2-(2-fluoro-phenyl)-pyridin-4-yl]-4-methyl-thiazol-2-yl}-amide)], the IC50 is 67 nM in series [1], 2300 nM in series [2], 432 nM in series [3] and 362 nM in series [4].
Take `Cc1nc(NC(=O)N2CCC[C@H]2C(N)=O)sc1-c1cncc(C2CC2)n1` [Example 66, (S)-Pyrrolidine-1,2-dicarboxylic acid 2-amide 1-{[5-(6-cyclopropyl-pyrazin-2-yl)-4-methyl-thiazol-2-yl]-amide}]: the IC50 in series [1] came to 13 nM; in series [2], 2740 nM; in series [3], 298 nM; in series [4] it was 435 nM.
In turn, `Cc1nc(NC(=O)N2CCC[C@H]2C(N)=O)sc1-c1ccnc(C(C)(C)CF)n1` [Example 71, (S)-Pyrrolidine-1,2-dicarboxylic acid 2-amide 1-({5-[2-(2-fluoro-1,1-dimethylethyl)-pyrimidin-4-yl]-4-methyl-thiazol-2-yl}-amide)] displayed a melting point of 187 to 190 °C.
The molecule `Cc1cc(-c2sc(NC(=O)N3CCC[C@H]3C(N)=O)nc2C)nc(C(C)(C)C)n1` [Example 72, (S)-Pyrrolidine-1,2-dicarboxylic acid 2-amide 1-{[5-(2-tert-butyl-6-methylpyrimidin-4-yl)-4-methyl-thiazol-2-yl]-amide}] had a melting point of 197 to 199 °C.
Turning to `Cc1nc(NC(=O)N2CCC[C@H]2C(N)=O)sc1-c1ccnc(C2CC2)n1` [Example 59, (S)-Pyrrolidine-1,2-dicarboxylic acid 2-amide 1-({4-methyl-5-[2-cyclopropyl-pyrimidin-4-yl]thiazol-2-yl-}-amide)], the IC50 is 64 nM in series [1], 3500 nM in series [2], 881 nM in series [3] and 917 nM in series [4].
